Structures can show the parent of a compound that is named as a salt.
Test system: patients who meet the 1990 ACR criteria for fibromyalgia syndrome
Test: Example 2 study: MASQ total score, 3-month treatment period
Format: in vivo, human
Design: MASQ total score, Actual, Mean / MASQ total score, Change from baseline, Mean / MASQ total score, Actual, Median / MASQ total score, Change from baseline, Median: scale not given here
Settings: for MASQ total score change, Difference from Placebo / MASQ total score, Change from baseline, LS Mean (SE): 3-month (LOCF), ITT, ANCOVA model; for MASQ total score, Actual, Mean / MASQ total score, Actual, Median / MASQ total score, Change from baseline, Mean / MASQ total score, Change from baseline, Median: 3-month treatment period (LOCF), intent-to-treat
Procedure: This was a multicenter, randomized, double-blind, placebo-controlled three-arm study designed which enrolled 1196 patients who meet the 1990 ACR criteria for fibromyalgia syndrome (history of widespread pain and pain in 11 of 18 tender point sites on digital palpation), as well as the more detailed admission criteria outlined in the protocol.
All randomized medications (placebo and milnacipran) were administered twice a day (BID).
(iii) Additional Efficacy Measurements: The Fibromyalgia Impact Questionnaire (FIQ) total score and physical function, Beck Depression Inventory (BDI), the MOS-Sleep Index Scale, the Arizona Sexual Experiences Scale (ASEX), Patient pain 24 hour and 7 day recall VAS, the SF-36 individual domains, Patient Global Disease Status, Patient Global Therapeutic Benefit, the Multiple Ability Self-report Questionnaire (MASQ, cognitive function), the Multidimensional Health Assessment Questionnaire (MDHAQ), Multidimensional Fatigue Inventory (MFI), and diary assessments including current pain (morning, random daily, and evening reports); overall pain past week (weekly report), overall fatigue in the last week (weekly report), and the extent that pain kept the patient from caring for themselves (weekly report).

`CCN(CC)C(=O)C1(c2ccccc2)CC1CN` (racemic) [milnacipran, Z-2-aminomethyl-1-phenyl-N,N-diethylcyclopropanecarboxamide hydrochloride] was tested, and the “MASQ total score change, Difference from Placebo” value (100 mg) was −1.13, the “MASQ total score, Change from baseline, LS Mean (SE)” value (100 mg) was −3.93 (0.786) and the “MASQ total score, Actual, Mean” value (100 mg) was 88.86. For the same compound, the “MASQ total score, Actual, Median” value (100 mg) was 89.0, the “MASQ total score, Change from baseline, Mean” value (100 mg) was −3.34 and the “MASQ total score, Change from baseline, Median” value (100 mg) was −3.0. For the same compound, the “MASQ total score change, Difference from Placebo” value (200 mg) was −1.12, the “MASQ total score, Change from baseline, LS Mean (SE)” value (200 mg) was −4.51 (0.797) and the “MASQ total score, Actual, Mean” value (200 mg) was 89.63. The “MASQ total score, Actual, Median” value (200 mg) was 90.5, the “MASQ total score, Change from baseline, Mean” value (200 mg) was −3.75 and the “MASQ total score, Change from baseline, Median” value (200 mg) was −3.0.

— patent US20080058318A1 (priority 2006, published 2008)
